Data on three compounds can be found in US8927548B2, “Triazole compounds that modulate HSP90 activity” (Synta Pharmaceuticals Corp., priority 2006, dated 2015).

pIC50: −log10 of the molar value. Where a name gives a salt, the structure may show the parent alone. A value given as a limit tells only on which side of the number the result lay.

The pIC50 is the IC50 on a negative log10 scale, so that one unit is a factor of ten.

The subject of one assay is Her2. The assay can be described thus: Degradation of Her2 in BT-474 cells, Method 1 (Western blot). In kind it is cell-based, human. The conditions noted are these: 0.5 μM, overnight. As to the method: Human high-Her2 breast carcinoma BT474 (HTB-20), SK-BR-3 (HTB-30) and MCF-7 breast carcinoma (HTB-22) from American Type Culture Collection, VA, USA were grown in Dulbecco's modified Eagle's medium with 4 mM L-glutamine and antibiotics ([…] penicillin and 100 μg/ml streptomycine; GibcoBRL). To obtain exponential cell growth, cells were trypsinized, counted and seeded at a cell density of 0.5×10^6 cells/ml regularly, every 3 days. All experiments were performed on day 1 after cell passage.
BT-474 cells are treated with 0.5 μM, 2 μM, or 5 μM of 17AAG (a positive control) or 0.5 μM, 2 μM, or 5 μM of a compound of the invention overnight in DMEM medium. After treatment, each cytoplasmic sample is prepared from 1×10^6 cells by incubation of cell lysis buffer (#9803, cell Signaling Technology) on ice for 10 minutes. The resulting supernatant used as the cytosol fractions is dissolved with sample buffer for SDS-PAGE and run on a SDS-PAGE gel, blotted onto a nitrocellulose membrane by using semi-dry transfer. Non-specific binding to nitrocellulose is blocked with 5% skim milk in TBS with 0.5% Tween at room temperature for 1 hour, then probed with anti-Her2/ErB2 mAb (rabbit IgG, #2242, Cell Signaling) and anti-Tubulin (T9026, Sigma) as housekeeping control protein. […]

The subject of the next assay is Hsp90. The assay can be described thus: Degradation of Her2 / inhibition of Hsp90, Method 2: MV-4-11 cell survival after 72 hours (Cell Counting Kit-8). In kind it is cell-based, human. As to conditions: Table 4, IC50 range, MV-4-11 cells. The procedure:
MV-4-11 cells (20,000 cells/well) were cultured in 96-well plates and maintained at 37° C. for several hours. The cells were treated with a compound of the invention or 17AAG (a positive control) at various concentrations and incubated at 37° C. for 72 hours. Cell survival was measured with Cell Counting Kit-8 (Dojindo Laboratories, Cat. # CK04). […] Tables 4-6: IC50 range of compounds of the invention for inhibition of Hsp90
On the technique in general: Tetrazolium assays rely on reduction of a dye to a coloured formazan, in cell work by metabolically active cells.

For the compound `C=CCNC1=C2C[C@@H](C)C[C@H](OC)[C@H](O)[C@@H](C)/C=C(\C)[C@H](OC(N)=O)[C@@H](OC)/C=C\C=C(/C)C(=O)NC(=CC1=O)C2=O` [Compound 17AAG, 17-allylamino-17-demethoxygeldanamycin], the “degradation of Her2” value in the assay on Her2 is reported as “partial degradation”.

Turning to `CC(=O)N1Cc2ccc(-n3c(O)nnc3-c3cc(C(C)C)c(O)cc3O)cc2C1` [Compound 23, 1-(5-(3-(2,4-dihydroxy-5-isopropylphenyl)-5-hydroxy-4H-1,2,4-triazol-4-yl)isoindolin-2-yl)ethanone], the pIC50 in the assay on Hsp90 was above 6.30.

For `CC(C)c1cc(-c2nnc(O)n2-c2ccc3c(c2)CCN3C(=O)C2CCC(N)CC2)c(O)cc1O` (stereo not drawn) [Compound 39, (4-Aminocyclohexyl)(5-(3-(2,4-dihydroxy-5-isopropylphenyl)-5-hydroxy-4H-1,2,4-triazol-4-yl)indolin-1-yl)methanone hydrochloride], the pIC50 in the assay with Hsp90 was above 6.00.
